The target of this experiment is T1, serotonin 1A (5HT1A) receptor (Rattus norvegicus, UniProt P19327).
T1 construct: The resultant precipitate was used as a rat hippocampal membrane fraction in the following procedures; from tissue; host or cells: hippocampal membrane fraction of male SD rat (7 weeks old; animals from Charles River)
T1 sequence (P19327 1-422): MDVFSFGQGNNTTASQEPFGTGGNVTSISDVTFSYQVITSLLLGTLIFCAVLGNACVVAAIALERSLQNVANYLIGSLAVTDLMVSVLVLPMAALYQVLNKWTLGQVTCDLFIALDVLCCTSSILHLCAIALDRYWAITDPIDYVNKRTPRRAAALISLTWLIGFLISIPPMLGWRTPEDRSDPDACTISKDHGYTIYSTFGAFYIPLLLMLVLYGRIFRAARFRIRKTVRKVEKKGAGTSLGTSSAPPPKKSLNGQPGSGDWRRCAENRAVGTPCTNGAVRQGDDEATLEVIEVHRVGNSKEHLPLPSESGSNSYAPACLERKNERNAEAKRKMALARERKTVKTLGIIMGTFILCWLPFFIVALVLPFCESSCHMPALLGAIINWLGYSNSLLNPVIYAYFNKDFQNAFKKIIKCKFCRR
The experiment can be described thus: Affinity for serotonin 1A (5HT1A) receptor: inhibition of 3H-8-OH-DPAT binding to rat hippocampal membrane fraction. To be noted: test compound as hydrochloride. Here is the method: 1. Affinity for serotonin 1A (5HT1A) receptor
(A) Preparation of rat hippocampal membrane fraction
A male SD strain rat (7-week old; Charles River) was decapitated, and brain was taken out therefrom quickly. 50 mM Tris-HCl buffer (pH 7.4) was added to the brain under ice cooling to obtain a suspension. The resultant suspension was homogenized, and then subjected to centrifugation at 48000 g for 15 minutes, to thereby obtain a precipitate. The precipitate was resuspended in the same Tris-HCl buffer as used above. The resultant suspension was incubated at 30° C. for 20 minutes to decompose endogenous serotonin of the rat hippocampal membrane, followed by centrifugation at 48000 g for 15 minutes to thereby obtain a precipitate. The resultant precipitate was used as a rat hippocampal membrane fraction in the following procedures.
(B) Method for the evaluation of the binding ability of ^3 H-8-hydroxy-dipropylaminotetralin (^3 H-8-OH-DPAT) to serotonin 1A receptor
The rat hippocampal membrane fraction prepared in step (A) above (about 100 to 200 μg in terms of proteins) was reacted with 0.5 nM (final concentration) ^3 H-8-OH-DPAT (which is commercially available from DuPont-NEN Research Products) and 10 μM (final concentration) pargyline (which is commercially available from Sigma Chemical Company) at 30° C. for 30 minutes to effect a reaction. The resultant reaction mixture was subjected to suction filtration using a Whatman GF/C filter, to thereby terminate the reaction. The radio-activity of ^3 H-8-OH-DPAT adsorbed on the filter was determined using a liquid scintillation counter. The obtained value is regarded as a total amount (TB) of specifically binding ^3 H-8-OH-DPAT and non-specifically binding ^3 H-8-OH-DPAT.
On the other hand, substantially the same procedure as mentioned above was repeated, except that 10 μM (final concentration) serotonin was added to the ^3 H-8-OH-DPAT and pargyline. The radioactivity of ^3 H-8-OH-DPAT adsorbed on the filter was determined in the same manner as mentioned above. The obtained value is regarded as the amount (NB) of non-specifically binding ^3 H-8-OH-DPAT.
Further, substantially the same procedure as mentioned above was repeated, except that, instead of serotonin, a test compound was used in a predetermined concentration. The radioactivity of ^3 H-8-OH-DPAT adsorbed on the filter was determined in the same manner as mentioned above. The obtained value is regarded as the amount (DTB) of binding ^3 H-8-OH-DPAT.
(C) Calculation of Ki value
The inhibition ratio of the test compound (at a certain concentration) against the binding of 3H-8-OH-DPAT (the inhibition ratio is hereinafter referred to simply as "binding inhibition ratio") was calculated according to the following formula:
Binding inhibition ratio (%)=100-(DTB-NB).div.(TB-NB)×100
With respect to each of the test compounds, the binding inhibition ratios at various concentrations (from a higher concentration to a lower concentration) were determined. The binding inhibition ratios were plotted, taking the logarithmic value of the concentration of test compound as the abscissa value, and the binding inhibition ratio as the ordinate value. Then, a curve was drawn by non-linear least square method.
The Ki value was determined according to the following formula:
[L] is the concentration (0.2 nM) of a radioactive ligand (^3 H-8-OH-DPAT) used in the test;

Molecules are shown by their SMILES.

This passage reports Ki results from US5578596A, “2-alkoxy-5,6,7,8-tetrahydroquinoxaline derivatives, and production method and use thereof” (Asahi Kasei Kogyo Kabushiki Kaisha, priority 1992, dated 1996).

As usually defined, the Ki is the equilibrium dissociation constant of an inhibitor or competing ligand from its target. Read a high Ki as weaker binding. Take `Cc1cc(C)c(C#N)c(N2CCN(CCCCOc3cnc4c(n3)CCCC4)CC2)n1` [Compound 561, 2-[4-{4-(3-Cyano-4-6-dimethyl-2-pyridyl)-1-piperazinyl}butoxy]-5,6,7,8-tetrahydroquinoxaline]: the Ki came out at 16 nM. As for `c1ccc(N2CCN(CCCCCOc3cnc4c(n3)CCCC4)CC2)nc1` [Compound 511, 2-[5-{4-(2-Pyridyl)-1-piperazinyl}pentoxy]-5,6,7,8-tetrahydroquinoxaline], the Ki was 8.4 nM. Compared with the last compound, the Ki is about 1.9-fold lower. Consider `Cc1nc2c(nc1OCCCCN1CCN(c3ccccn3)CC1)CCCC2` [Compound 409], for which the Ki turned out to be 16 nM. The same measure for `FC(F)(F)c1cccc(N2CCN(CCCCOc3cnc4c(n3)CCCC4)CC2)n1` [Compound 640, 2-[4-{4-(6-Trifluoromethyl-2-pyridyl)-1-piperazinyl}butoxy]-5,6,7,8-tetrahydroquinoxaline]: 5.2 nM; for `FC(F)(F)c1ccnc(N2CCN(CCCCOc3cnc4c(n3)CCCC4)CC2)c1` [Compound 639, 2-[4-{4-(4-Trifluoromethyl-2-pyridyl)-1-piperazinyl}butoxy]-5,6,7,8-tetrahydroquinoxaline]: 11 nM; for `COc1cc(OC)nc(N2CCN(CCCCOc3cnc4c(n3)CCCC4)CC2)n1` [Compound 549, 2-[4-{4-(4,6-Dimethoxy-2-pyrimidinyl)-1-piperazinyl}butoxy]-5,6,7,8-tetrahydroquinoxaline]: 6.6 nM. In the case of `Cc1ccc(C)c(N2CCN(CCCCOc3cnc4c(n3)CCCC4)CC2)n1` [Compound 598, 2-[4-{4-(3,6-Dimethyl-2-pyridyl)-1-piperazinyl}butoxy]-5,6,7,8-tetrahydroquinoxaline] it was 25 nM; in that of `Cc1nc2c(nc1OCCCCN1CCN(c3ncccn3)CC1)CCCC2` [Compound 410], 24 nM; in that of `Cc1cc(C)nc(N2CCN(CCCCOc3cnc4c(n3)CCCC4)CC2)c1` [Compound 569, 2-[4-{4-(4,6-Dimethyl-2-pyridyl)-1-piperazinyl}butoxy]-5,6,7,8-tetrahydroquinoxaline], 6.8 nM. In the case of `c1cnc(N2CCN(CCCCCOc3cnc4c(n3)CCCC4)CC2)nc1` [Compound 512, 2-[5-{4-(2-pyrimidinyl)-1-piperazinyl}pentoxy]-5,6,7,8-tetrahydroquinoxaline] it was 23 nM; in that of `Cc1cc(C)nc(N2CCN(CCCCOc3cnc4c(n3)CCCC4)CC2)n1` [Compound 481, 2-[4-{4-(4,6-Dimethyl-2-pyrimidinyl)-1-piperazinyl}butoxy]-5,6,7,8-tetrahydroquinoxaline], 5.3 nM. For the compound `COc1cccnc1N1CCN(CCCCOc2cnc3c(n2)CCCC3)CC1` [Compound 557, 2-[4-{4-(3-Methoxy-2-pyridyl)-1-piperazinyl}butoxy]-5,6,7,8-tetrahydroquinoxaline], the Ki turned out to be 1.5 nM.

Turning to `c1cnc(N2CCN(CCCOc3cnc4c(n3)CCCC4)CC2)nc1` [Compound 538, 2-[3-{4-(2-pyrimidinyl)-1-piperazinyl}propoxyl]-5,6,7,8-tetrahydroquinoxaline], the Ki is 25 nM. The compound `c1ccc(N2CCN(CCCOc3cnc4c(n3)CCCC4)CC2)nc1` [Compound 537, 2-[3-{4-(2-Pyridyl)-1-piperazinyl}propoxy]-5,6,7,8-tetrahydroquinoxaline] gave a Ki of 14 nM. In the case of `N#Cc1cccnc1N1CCN(CCCCOc2cnc3c(n2)CCCC3)CC1` [Compound 514, 2-[4-{4-(3-Cyano-2-pyridyl)-1-piperazinyl}butoxy]-5,6,7,8-tetrahydroquinoxaline] it was 4.8 nM.

`Clc1cccnc1N1CCN(CCCCOc2cnc3c(n2)CCCC3)CC1` [Compound 502, 2-[4-{4-(3-Chloro-2-pyridyl)-1-piperazinyl}butoxy]-5,6,7,8-tetrahydroquinoxaline]: affinity was put at a Ki of 13 nM.
